Literature values as cited in patent publication US20250067661A1, “SYSTEM FOR BODY FLUID ISOMER ANALYSIS” (KONINKLIJKE PHILIPS N.V., priority 2021, published 2025).

Details: intravenous solution containing a racemic mixture

| maximum increase in plasma concentration [fold] | SMILES |
| --- | --- |
| ≤ 13 | C[C@@H](O)C(=O)O [D-lactate] |
| ≤ 2 | C[C@H](O)C(=O)O [L-lactate] |
